# Columns and labels:
# [1] = molecular target: T1, full-length mHTT (flHTT-Q73) (Homo sapiens, UniProt P42858, INS38QQQQQQQQQQQQQQQQQQQQQQQQQQQQQQQQQQQQQQQQQQQQQQQQQQQQ); experiment: OI-RD affinity reaction parameters with flHTT-Q73; type: binding; settings: OI-RD, flHTT-Q73
# T1 construct: LC3B, full-length mHTT (flHTT-Q73) and full-length HTT-Q23 (flHTT-Q23); protein A (N, cleaved yes); made in house; host or cells: human embryonic kidney E293 cells
# From the text: Each compound was printed in triplicates on the microarray. 01-RD was used to measure the affinity reaction parameters of the compound with LC3B, full-length mHTT (flHTT-Q73) and full-length HTT-Q23 (flHTT-Q23).
# LC3B = molecular target: T2, LC3B (Homo sapiens, UniProt Q9GZQ8); experiment: MST affinity with LC3B; type: binding; settings: MST, LC3B, protein 500 nM; read-out: Kd
# T2 construct: His8 (N, cleaved yes); GST (from pGEX-6P1) (N, cleaved yes); made in house; host or cells: E. coli BL21(DE3)pLsyS
# mHTT [2] = experiment: Western-blot mHTT level in primary cultured cortical neurons; type: cell-based, mouse; settings: 2 days
# Experimental: Primary cultured cortical neurons: The brains of Hdh^Q140/Q7 and Hdh^Q7/Q7 newborn mice (P0) were dissected, digested, dissociated, and cultured.
# (1) The primary cultured Hdh^Q140/Q7 and Hdh^Q7/Q7 mouse cortical neuron cells were treated with the compound for 2 days.
# mHTT [3] = molecular target: T3, mHTT (Homo sapiens, UniProt P42858, INS38QQQQQQQQQQQQQQQQQQQQQQQQQQ); experiment: HTRF mHTT level in HD patient iPSC-derived neurons; type: cell-based; settings: iPSC-derived neurons (Q47)
# T3 construct: endogenous in cells; host or cells: HD patient iPSC-derived neurons (Q47)
# mHTT [4] = experiment: Intracerebroventricular injection, mHTT and wtHTT in cortices of HD mice; type: in vivo, mouse
# Experimental: Experimental animals: Hdh^Q140/Q7 mice (3 months old), 4 in each group.
# Each test includes three repetitions for each sample, and the mean values was calculated (FIG. 16).
# Q72-GFP = experiment: OI-RD affinity reaction parameters with Q72-GFP; type: binding
# From the text: (§1) (1) PolyQ-GFP cDNA sequence (expressing Met-polyQ-GFP, wherein polyQ was Q72 or Q25) was synthesized de novo and subcloned into pcDNA vector. […] And the same method was used to obtain cells expressing Q53-GFP, cells expressing Q46-GFP, and cells expressing Q38-GFP.
# Q46-GFP = experiment: OI-RD affinity reaction parameters with Q46-GFP; type: binding
# From the text: as §1
# GFP = experiment: OI-RD affinity screening with GFP; type: binding; settings: OI-RD difference images
# Experimental: To identify compound(s) that can selectively bind to proteins containing expanded polyglutamine, screening was conducted using a method similar to 1.1, except for that the target protein HTTexon1-Q72-MBP in step (1) of 1.1 was replaced with the polyQ-GFP protein prepared in 10.1, and the target protein HTTexon1-Q25-MBP in step (2) of 1.1 was replaced with GFP.
# [5] = system: polyQ-GFP (Q72-GFP, Q25-GFP); experiment: polyQ-GFP level in HEK293T cells by Incucyte fluorescence counting; type: cell-based; settings: Q72-GFP vs Q25-GFP expressing HEK293T cells, 100 nM compound 1, 100 nM compound 3 or 50 nM compound 4, 2 days
# From the text: (1) PolyQ-GFP cDNA sequence (expressing Met-polyQ-GFP, wherein polyQ was Q72 or Q25) was synthesized de novo and subcloned into pcDNA vector. It was transfected into HEK293T cells (ATCC, CRL-3216) through forward transfection to obtain Q72-GFP expressing cells and Q25-GFP expressing cells, respectively. And the same method was used to obtain cells expressing Q53-GFP, cells expressing Q46-GFP, and cells expressing Q38-GFP.
# The Q72-GFP expressing cells and Q25-GFP expressing cells obtained in step (1) of 10.1 were used. […] Then the level of polyQ-GFP was measured by Incucyte fluorescence counting (FIG. 25).
# MBP-ATXN3-Q28 = molecular target: T4, MBP-ATXN3-Q28 (Homo sapiens, UniProt P54252, INS305QQQQQQQQQQQQQQQQQQ); experiment: OI-RD affinity screening with MBP-ATXN3-Q28; type: binding; settings: OI-RD difference images
# T4 construct: His8 with TEV protease cleavage site; made in house; host or cells: Escherichia coli Rosetta(DE3)pLsyS
# Experimental: (§2) Screening was conducted using a method similar to 1.1, except for that the target protein HTTexon1-Q72-MBP in step (1) of 1.1 was replaced with MBP-ATXN3-Q68 and the target protein HTTexon1-Q25-MBP in step (2) of 1.1 was replaced with MBP-ATXN3-Q28, to obtain compounds that can selectively bind to ATXN3 with abnormally expanded polyQ (MBP-ATXN3-Q68).
# [6] = molecular target: T5, mutant ATXN1 protein (His-ATXN1-Q92) (Homo sapiens, UniProt P54253, INS208QQQQQQQQQQQQQQQQQQQQQQQQQQQQQQQQQQQQQQQQQQQQQQQQQQQQQQQQQQQQQQQQQQQQQQQQQQQQQQQQ); experiment: HTRF mutant ATXN1 level in His-ATXN1-Q92-expressing cells; type: cell-based; settings: 100 nM, 2 days, anti-His-Tb/MW1-D2
# T5 construct: expressed in transfected cells; host or cells: HEK293T cells (ATCC, CRL-3216)
# MBP-ATXN3-Q68 [7] = molecular target: T6, MBP-ATXN3-Q68 (Homo sapiens, UniProt P54252, INS305QQQQQQQQQQQQQQQQQQQQQQQQQQQQQQQQQQQQQQQQQQQQQQQQQQQQQQQQQQ); experiment: MST affinity with MBP-ATXN3-Q68
# Experimental: The affinity of the compound with full-length HTT and LC3B was verified with micro thermophoresis (MST) using Monolith NT.115 instrument from NanoTemper Technologies. The reaction buffer was 20 mM HEPES, pH 7.4, 150 mM NaCl.
# MBP-ATXN3-Q68 [8] = molecular target: T6, MBP-ATXN3-Q68; experiment: OI-RD affinity screening with MBP-ATXN3-Q68; type: binding; parameters: His8 with TEV protease cleavage site; made in house; host or cells: Escherichia coli Rosetta(DE3)pLsyS; settings: OI-RD difference images
# Experimental: as §2
# T1 sequence (P42858 with tags, fused parts or gaps with the stated changes): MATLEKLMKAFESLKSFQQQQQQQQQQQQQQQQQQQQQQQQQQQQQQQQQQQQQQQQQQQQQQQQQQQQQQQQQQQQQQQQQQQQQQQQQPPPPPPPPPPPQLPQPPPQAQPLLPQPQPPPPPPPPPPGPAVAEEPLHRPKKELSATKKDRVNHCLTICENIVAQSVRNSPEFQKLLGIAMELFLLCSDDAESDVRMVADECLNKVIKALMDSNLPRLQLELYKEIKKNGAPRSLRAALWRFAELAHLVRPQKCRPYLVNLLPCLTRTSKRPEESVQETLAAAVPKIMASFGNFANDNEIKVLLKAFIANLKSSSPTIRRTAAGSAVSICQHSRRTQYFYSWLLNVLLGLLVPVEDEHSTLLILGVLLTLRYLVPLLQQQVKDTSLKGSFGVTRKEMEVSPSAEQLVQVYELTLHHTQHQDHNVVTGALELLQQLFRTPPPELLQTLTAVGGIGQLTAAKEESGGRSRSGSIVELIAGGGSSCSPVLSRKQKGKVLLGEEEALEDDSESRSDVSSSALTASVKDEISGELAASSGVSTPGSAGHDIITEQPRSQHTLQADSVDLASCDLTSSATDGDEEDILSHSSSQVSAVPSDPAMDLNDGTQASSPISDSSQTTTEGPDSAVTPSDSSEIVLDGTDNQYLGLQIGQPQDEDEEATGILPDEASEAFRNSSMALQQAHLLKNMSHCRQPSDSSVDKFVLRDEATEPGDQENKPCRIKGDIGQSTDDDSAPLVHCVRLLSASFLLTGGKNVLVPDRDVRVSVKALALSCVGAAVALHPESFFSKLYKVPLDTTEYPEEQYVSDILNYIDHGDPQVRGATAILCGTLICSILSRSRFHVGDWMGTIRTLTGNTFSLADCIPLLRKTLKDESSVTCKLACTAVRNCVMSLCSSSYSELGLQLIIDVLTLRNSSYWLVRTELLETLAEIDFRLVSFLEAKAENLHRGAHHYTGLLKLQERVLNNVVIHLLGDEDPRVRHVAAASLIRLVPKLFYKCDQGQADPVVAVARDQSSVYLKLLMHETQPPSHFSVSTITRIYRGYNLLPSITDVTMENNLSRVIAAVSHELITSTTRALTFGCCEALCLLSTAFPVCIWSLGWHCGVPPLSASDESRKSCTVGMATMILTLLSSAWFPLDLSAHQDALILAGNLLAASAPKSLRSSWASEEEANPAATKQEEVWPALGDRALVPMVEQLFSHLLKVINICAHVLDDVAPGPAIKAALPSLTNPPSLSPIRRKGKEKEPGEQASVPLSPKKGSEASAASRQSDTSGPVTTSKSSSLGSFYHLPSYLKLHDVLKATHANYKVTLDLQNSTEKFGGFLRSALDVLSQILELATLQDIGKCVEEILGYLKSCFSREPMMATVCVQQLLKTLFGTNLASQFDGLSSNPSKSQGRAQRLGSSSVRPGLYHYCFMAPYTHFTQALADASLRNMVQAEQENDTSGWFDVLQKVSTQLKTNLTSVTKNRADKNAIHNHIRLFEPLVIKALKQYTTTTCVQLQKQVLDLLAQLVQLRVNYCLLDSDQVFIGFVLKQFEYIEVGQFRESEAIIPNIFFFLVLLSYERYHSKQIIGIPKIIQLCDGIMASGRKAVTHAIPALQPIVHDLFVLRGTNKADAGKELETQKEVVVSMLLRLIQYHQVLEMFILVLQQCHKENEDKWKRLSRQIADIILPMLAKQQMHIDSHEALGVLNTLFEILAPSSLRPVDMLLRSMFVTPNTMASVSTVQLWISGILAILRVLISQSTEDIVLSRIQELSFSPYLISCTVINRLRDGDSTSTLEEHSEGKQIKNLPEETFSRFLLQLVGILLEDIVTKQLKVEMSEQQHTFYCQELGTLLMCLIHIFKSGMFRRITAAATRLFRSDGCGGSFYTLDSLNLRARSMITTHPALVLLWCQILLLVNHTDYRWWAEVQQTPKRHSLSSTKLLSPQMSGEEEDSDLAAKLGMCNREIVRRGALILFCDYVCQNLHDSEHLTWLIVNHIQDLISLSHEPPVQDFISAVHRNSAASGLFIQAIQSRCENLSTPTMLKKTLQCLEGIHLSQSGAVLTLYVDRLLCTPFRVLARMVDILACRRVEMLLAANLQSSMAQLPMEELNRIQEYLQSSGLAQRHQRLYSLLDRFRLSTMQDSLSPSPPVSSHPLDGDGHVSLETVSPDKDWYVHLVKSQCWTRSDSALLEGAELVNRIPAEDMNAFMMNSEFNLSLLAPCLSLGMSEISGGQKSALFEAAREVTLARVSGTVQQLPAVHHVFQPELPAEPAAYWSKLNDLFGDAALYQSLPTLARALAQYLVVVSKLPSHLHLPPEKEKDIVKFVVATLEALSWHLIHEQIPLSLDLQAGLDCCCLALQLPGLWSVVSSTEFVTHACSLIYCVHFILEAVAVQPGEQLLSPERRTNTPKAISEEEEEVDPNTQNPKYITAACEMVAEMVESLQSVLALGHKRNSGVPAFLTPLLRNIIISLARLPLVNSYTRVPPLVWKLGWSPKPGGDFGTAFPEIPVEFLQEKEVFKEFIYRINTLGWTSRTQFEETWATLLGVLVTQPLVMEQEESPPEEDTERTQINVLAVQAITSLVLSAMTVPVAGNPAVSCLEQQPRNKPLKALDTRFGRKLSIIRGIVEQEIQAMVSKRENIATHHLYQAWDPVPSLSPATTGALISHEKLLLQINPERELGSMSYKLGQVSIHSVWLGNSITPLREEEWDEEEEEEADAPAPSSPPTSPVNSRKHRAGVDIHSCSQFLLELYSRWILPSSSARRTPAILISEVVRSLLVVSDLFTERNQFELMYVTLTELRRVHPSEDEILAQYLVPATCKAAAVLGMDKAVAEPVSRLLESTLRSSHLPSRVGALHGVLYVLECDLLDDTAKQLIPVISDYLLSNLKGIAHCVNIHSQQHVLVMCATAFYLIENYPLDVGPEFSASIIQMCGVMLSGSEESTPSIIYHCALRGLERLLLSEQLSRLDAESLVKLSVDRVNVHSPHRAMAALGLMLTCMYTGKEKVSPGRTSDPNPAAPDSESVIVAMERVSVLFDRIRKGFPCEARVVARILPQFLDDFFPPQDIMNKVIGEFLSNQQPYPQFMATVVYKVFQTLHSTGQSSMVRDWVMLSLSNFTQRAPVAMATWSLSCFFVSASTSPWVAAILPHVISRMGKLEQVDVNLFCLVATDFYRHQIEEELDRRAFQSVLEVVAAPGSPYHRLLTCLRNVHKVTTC
# T6 sequence (P54252 with tags, fused parts or gaps isoform P54252-4 with the stated changes): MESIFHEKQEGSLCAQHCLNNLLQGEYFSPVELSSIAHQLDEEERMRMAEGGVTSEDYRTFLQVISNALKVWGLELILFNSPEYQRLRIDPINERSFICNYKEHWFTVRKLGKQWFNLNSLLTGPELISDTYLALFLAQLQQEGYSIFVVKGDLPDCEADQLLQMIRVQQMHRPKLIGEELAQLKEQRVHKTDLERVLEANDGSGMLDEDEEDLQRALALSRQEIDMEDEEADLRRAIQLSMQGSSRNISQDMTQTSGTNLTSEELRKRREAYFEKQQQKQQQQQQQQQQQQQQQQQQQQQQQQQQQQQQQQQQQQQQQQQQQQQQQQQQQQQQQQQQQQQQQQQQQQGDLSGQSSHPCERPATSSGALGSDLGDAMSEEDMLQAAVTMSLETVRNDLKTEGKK
# T4 sequence (P54252 with tags, fused parts or gaps isoform P54252-4 with the stated changes): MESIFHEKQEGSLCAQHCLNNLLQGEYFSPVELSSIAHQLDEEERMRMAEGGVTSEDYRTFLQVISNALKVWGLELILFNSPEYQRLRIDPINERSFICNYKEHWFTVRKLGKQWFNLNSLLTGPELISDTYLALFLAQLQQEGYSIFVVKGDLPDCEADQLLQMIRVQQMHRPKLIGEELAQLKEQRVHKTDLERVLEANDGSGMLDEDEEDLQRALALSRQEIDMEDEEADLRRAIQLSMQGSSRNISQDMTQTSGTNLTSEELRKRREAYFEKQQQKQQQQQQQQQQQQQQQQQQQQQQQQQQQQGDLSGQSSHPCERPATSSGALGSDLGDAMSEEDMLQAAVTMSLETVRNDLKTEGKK
# T5 sequence (P54253 with tags, fused parts or gaps with the stated changes): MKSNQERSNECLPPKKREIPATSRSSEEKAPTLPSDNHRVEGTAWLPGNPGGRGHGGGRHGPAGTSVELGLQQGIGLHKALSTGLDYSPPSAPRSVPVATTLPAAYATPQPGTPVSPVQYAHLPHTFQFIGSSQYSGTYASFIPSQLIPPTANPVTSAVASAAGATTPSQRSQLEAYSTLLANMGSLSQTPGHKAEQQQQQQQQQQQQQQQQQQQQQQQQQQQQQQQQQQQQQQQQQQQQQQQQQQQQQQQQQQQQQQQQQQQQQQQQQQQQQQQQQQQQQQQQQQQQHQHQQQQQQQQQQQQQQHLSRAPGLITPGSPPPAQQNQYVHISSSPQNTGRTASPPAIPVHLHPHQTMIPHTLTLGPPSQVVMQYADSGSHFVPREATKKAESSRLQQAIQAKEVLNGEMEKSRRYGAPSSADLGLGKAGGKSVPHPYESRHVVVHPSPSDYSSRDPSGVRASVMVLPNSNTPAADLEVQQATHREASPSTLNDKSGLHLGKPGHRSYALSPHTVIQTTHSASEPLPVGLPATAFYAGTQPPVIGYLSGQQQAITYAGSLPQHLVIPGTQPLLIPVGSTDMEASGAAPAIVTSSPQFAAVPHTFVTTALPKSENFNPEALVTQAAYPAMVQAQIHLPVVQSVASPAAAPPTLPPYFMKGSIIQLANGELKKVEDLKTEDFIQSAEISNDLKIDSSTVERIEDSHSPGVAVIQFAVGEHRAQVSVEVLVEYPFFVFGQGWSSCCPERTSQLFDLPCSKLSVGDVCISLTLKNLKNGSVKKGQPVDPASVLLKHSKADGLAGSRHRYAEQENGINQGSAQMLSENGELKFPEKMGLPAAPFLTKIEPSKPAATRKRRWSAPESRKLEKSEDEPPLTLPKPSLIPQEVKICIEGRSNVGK
smiles,measurement,setting,value
"O=C1Nc2ccc(I)cc2/C1=C/c1cc(Br)c(O)c(Br)c1 [compound 1, GW5074]",Koff,[1],0.000133 s⁻¹
same,Kon,[1],5.43e-05 min/nM
same,Kd,[1]; read-out: Kd,0.0147 µM
same,Kd,LC3B,4.76 µM
same,concentration range in which the effect of selectively reducing mHTT levels was observed,mHTT [2],30 to 300 nM
same,preferred concentration for selectively reducing mHTT levels,mHTT [2],100 nM
same,mHTT levels,mHTT [3]; 2B7/MW1,Decreased mHTT levels were observed
same,mHTT levels,mHTT [3]; presence of the autophagy inhibitor NH4Cl,this effect was not observed
same,mHTT selectivity relative to wtHTT,"mHTT [4]; Hdh^Q140/Q7 mice, icv, 10 days",showed mHTT selectivity relative to wtHTT
same,mHTT level in cortices,"mHTT [4]; mouse, in vivo",significantly reduced mHTT level
same,Kd,Q72-GFP,0.18 µM
same,Koff,Q72-GFP,0.000252 s⁻¹
same,Kon,Q72-GFP,8.37e-05 min/nM
same,Kd,Q46-GFP,0.0602 µM
same,Koff,Q46-GFP,0.000305 s⁻¹
same,Kon,Q46-GFP,0.000304 min/nM
same,binding to GFP,GFP,did not bind
same,level of proteins containing expanded polyglutamine in cells (polyQ-GFP),[5],can selectively reduce the level
same,binding to MBP-ATXN3-Q28,MBP-ATXN3-Q28,did not bind
same,level of mutant ATXN1 protein (His-ATXN1-Q92),[6],Decreased levels of mutant ATXN1 were observed
same,Kd,MBP-ATXN3-Q68 [7],6.32 µM
same,binding to MBP-ATXN3-Q68,MBP-ATXN3-Q68 [8],binded

# Source: patent US20220170930A1, “METHOD FOR SCREENING COMPOUND FOR TREATING OR PREVENTING POLYQ-RELATED NEURODEGENERATIVE DISEASES” (FUDAN UNIVERSITY, priority 2019, published 2022)
